The ED50 is the midpoint of the dose-response relation.

We go through 8 compounds from patent US5935997A, “O-thiocarbamoyl-aminoalkanol compounds, their pharmaceutically useful salts and process for preparing the same” (Yukong Limited, priority 1998, dated 1999).

One test relates to mice (CD-1 strain). The test can be described thus: Forced Swimming Test (antidepressant; reduction of immobility). In kind it is in vivo. To be noted: one hour prior to immersion, immobility in 15 min. Here is the method:
The therapeutic use of the compounds claimed in the present invention as antidepressants has been proven by the "Forced Swinuning Test", a well known pharmacological screening methods for depression and the results are shown in the following Table II. The procedure described by Porsolt et al., […] was used. Test compound was administered p.o. and i.p. to mice (CD-1 strain), one hour prior to the animals being immersed in a 1500 mL glass beaker (16.5 cm deep, 13.0 cm diameter) filled with water (20~23° C.) to about 5 cm from the top. Mice were kept in the water for a period of 15 minutes and the duration of immobility observed within the 15-minute test period was recorded. A mouse was judged to be immobile if it floated motionlessly in the water making only those movements necessary to keep its head above the water.

The test system of the next test is mice (CD-1strain). The experiment in a line: Maximal ElectroShock (MES) test (anticonvulsant). In kind it is in vivo. To be noted: for MES (animals protected/tested): 30 mg/kg; for ED50: Mus musculus. (In the maximal electroshock model the usual endpoint is tonic extension of the hind limbs.)

For `NC(=S)OC[C@@H](N)Cc1ccccc1`, in the test on mice (CD-1 strain) (i.p. (30 mg/kg)), the “Inhibition (reduction, %)” value was determined as 51.2%. For the compound `NC(=S)OCC(N)Cc1ccc(Cl)cc1` (stereo not drawn), the “Inhibition (reduction, %)” value is 30.6% in the test on mice (CD-1 strain) (i.p. (30 mg/kg)) and 38.1% in the test with mice (CD-1 strain) (p.o. (30 mg/kg)). Consider `CNC(=S)OC[C@H](N)Cc1ccccc1`, for which, in the test with mice (CD-1strain) (po, 0.5 h), the “MES (animals protected/tested)” value is reported as 3/3.

`CN(C)C(=S)OC[C@H](N)Cc1ccc(Cl)c(Cl)c1`: the “MES (animals protected/tested)” value in the test with mice (CD-1strain) (ip, 4.0 h) was 1/3.

For `NC(=S)OC[C@H](N)Cc1ccccc1` [drawing 22], in the test with mice (CD-1 strain) (i.p. (30 mg/kg)), the “Inhibition (reduction, %)” value stood at 41.6%.

Consider `CNC(=S)OCC(Cc1ccccc1)N(C)C` (stereo not drawn) [drawing 26], for which the “Inhibition (reduction, %)” value in the test on mice (CD-1 strain) (i.p. (30 mg/kg)) is 31.4%; with mice (CD-1 strain) (p.o. (30 mg/kg)) it was 23.4%. `NC(=S)OC[C@H](N)Cc1ccccc1` [drawing 29]: the ED50 in the test on mice (CD-1strain) (ip, 0.5 h) worked out at 29 mg/kg; in the test with mice (CD-1strain) (po, 0.5 h), 189 mg/kg. Consider `CNC(=S)OCC(Cc1ccccc1)N(C)C` (stereo not drawn) [drawing 33], for which the ED50 in the test with mice (CD-1strain) (ip, 1 h) is 31.5 mg/kg; with mice (CD-1strain) (po, 0.5 h), 82.5 mg/kg.
